Laboratory results reported in ChEMBL document CHEMBL5604062, “ASAP - ZIKV NS2B-NS3 protease fluorescence dose response” (2024).
Values joined by “and” are separate entries in the source; they are usually repeats but may differ in a detail not shown here. Identical values can stand only once.

The compounds below were run against Nonstructural protein 3 (Zika virus, UniProt A0A024AXB9) (assay: Functional biochemical assay to identify treatments for viral infectious disease that targets Zika NS2B-NS3 protease. Utilizing a direct enzyme activity measurement method, reading the fluorescence intensity is used to characterize the relative potency of inhibitors as IC50.).
Chain of Nonstructural protein 3 (A0A024AXB9 whole entry): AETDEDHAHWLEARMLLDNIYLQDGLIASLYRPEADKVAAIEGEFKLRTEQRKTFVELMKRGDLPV
Parameters: species or system PRVABC59

| IC50 | Structure (SMILES) |
| --- | --- |
| 5560 nM | Cc1cc(C(=O)Nc2ccc3c(c2)CNC3)c2cnn(C)c2n1 |
| 19900 nM | COc1cc(Br)cc2c1NC(=O)[C@]2(Nc1ccc2c(c1)CNC2)C(N)=O |
| 1830 nM | O=C(Nc1ccc2c(c1)CNC2)c1cccc(-c2cnco2)c1 |
| 276 nM | N#Cc1cc(Cl)cc(C(=O)Nc2ccc3c(c2)CNC3)c1 |
| 3060 nM | COCCOc1ccc(Cl)cc1C(=O)Nc1ccc2c(c1)CNC2 |
| 749 nM | Cc1ccc(S(=O)(=O)CNC(=O)[C@H](Nc2ccc3c(c2)CNC3)c2cc(Cl)cc3[nH]ncc23)cc1 |
| > 25000 nM | O=C(Nc1ccc2c(c1)CNC2)N1C[C@H](C2CC2)C[C@@H]1C1CC1 |
| 23200 nM | O=C(NCc1ccc2c(c1)CCNC2)c1cc(Cl)cc2[nH]ncc12 |
| 52 nM and 37 nM | N#CCCNC(=O)[C@H](Nc1ccc2c(c1)CNC2)c1cc(Cl)cc(C2CC2)c1 |
| > 25000 nM | Cc1nc2cc(Cl)ccc2cc1C(=O)Nc1ccc2c(c1)CNC2 |
| 15000 nM | C[C@H]1C[C@H](c2cccc(CN)c2)[C@@H](c2cc(Cl)cc(NC(=O)OCc3ccccc3)c2)C1 |
| 265 nM | O=C(Nc1ccc2c(c1)CNC2)c1cc(Br)cc2[nH]c([C@H]3CCOC3)nc12 |
| 55 nM and 42 nM | CNC(=O)[C@H](Nc1ccc2c(c1)CNC2)c1cc(Cl)cc(C2CC2)c1 |
| > 25000 nM | Cn1ncc(C(=O)Nc2cc(CCCN)ccn2)c1O |
| 857 nM | O=C(Nc1ccc2c(c1)CNC2)c1cc(Cl)ccc1SC1CCCC1 |
| > 25000 nM | O=C(Nc1ccc2c(c1)CNC2)C1(c2ccc(Cl)cc2)CCCC1 |
| 174 nM | N#C[C@H](Nc1ccc2c(c1)CNC2)c1cc(Cl)cc(C2CC2)c1 |
| > 25000 nM | O=C1Cc2c(cccc2C(=O)Nc2ccc3c(c2)C(=O)OC3)N1 |
| 1130 nM | C[C@H]1Oc2c(cccc2C(=O)Nc2ccc3c(c2)CNC3)NC1=O |
| 21000 nM | CCCN1C(=O)[C@](Nc2ccc3c(c2)CNC3)(C(N)=O)c2cc(Cl)ccc21 |
| > 25000 nM | Cc1c(C(=O)Nc2cc3c(cn2)OCC3)cc(C2CC2)n1C |
| 590 nM | O=C(Nc1ccc2c(c1)CNC2)c1cc(Br)cc2[nH]c(C3CCOCC3)nc12 |

| IC50 | Structure (SMILES) |
| --- | --- |
| 2290 nM | CC(C)COc1ccc(Cl)cc1C(=O)Nc1ccc2c(c1)CNC2 |
| > 25000 nM | CC(C)(C)O[C@H]1CCCN(C(=O)Nc2ccc3c(c2)CNC3)C1 |
| > 25000 nM | CC1(C)CN(C(=O)Nc2ccc3c(c2)CNC3)CC(F)(F)C1 |
| > 25000 nM | CNC(=O)[C@]1(Nc2ccc3c(c2)CNC3)C(=O)Nc2ccc(Cl)cc21 |
| 1080 nM | NS(=O)(=O)c1cc(Cl)cc(C(=O)Nc2ccc3c(c2)CNC3)c1 |
| 866 nM | Cc1ccc2cc(Cl)cc(C(=O)Nc3ccc4c(c3)CNC4)c2n1 |
| 156 nM | Cn1cc(CCc2nc3c(C(=O)Nc4ccc5c(c4)CNC5)cc(Cl)cc3[nH]2)cn1 |
| > 25000 nM | N#C[C@H](Nc1ccc2c(c1)CNC2)c1ccnc(C(F)(F)F)c1 |
| > 25000 nM | Cc1c(C(=O)Nc2cc(CN(C)C)ccn2)cc(C2CC2)n1C |
| > 25000 nM | C#Cc1ccnc(NC(=O)c2cc(C3CC3)n(C)c2C)c1 |
| > 25000 nM | O=C(Nc1ccc2c(c1)CNC2)N1CCC[C@](O)(c2ccccc2)C1 |
| 10300 nM | N#C[C@H](Nc1ccc2c(c1)CNC2)c1n[nH]c2cc(C(F)(F)F)ccc12 |
| > 25000 nM | O=C(Nc1ccc2c(c1)CNC2)N1CCC[C@H](CC2CCC2)C1 |
| 1230 nM | O=C1CCN(c2cc(Cl)cc(C(=O)Nc3ccc4c(c3)CNC4)c2)C(=O)N1 |
| > 25000 nM | CCN(CC)C[C@H]1CCCN(C(=O)Nc2ccc3c(c2)CNC3)C1 |
| 15000 nM and > 25000 nM | O=C(Nc1ccc2c(c1)CNC2)c1ccc2scnc2c1 |
| > 25000 nM | O=C(Nc1ccc2c[nH]nc2c1)c1cc(Cl)cc2[nH]ncc12 |
| 5070 nM | Cn1ncc2c(C(=O)Nc3ccc4c(c3)CNC4)cc(C3CC3)nc21 |
| 9890 nM | COc1ccc(CN2Cc3cc(NC(=O)c4cc(Cl)cc5[nH]ncc45)cc(Br)c3C2)cc1 |
| > 25000 nM | COCCc1ccnc(NC(=O)c2cc(C3CC3)n(C)c2C)c1 |
| 24600 nM | O=C(Nc1ccc2c(c1)CNC2)N1C[C@H](C(F)F)C2(CC2)C1 |
| > 25000 nM | CCCN1C(=O)[C@](Nc2ccc3c(c2)CNC3)(C(=O)NC)c2ccccc21 |

| IC50 | Structure (SMILES) |
| --- | --- |
| 79 nM and 70 nM | O=C(Nc1ccc2c(c1)CNC2)c1cc(Cl)cc2ccncc12 |
| > 25000 nM | C[C@H]1CC2(CN1C(=O)Nc1ccc3c(c1)CNC3)CC(F)(F)C2 |
| > 25000 nM | O=C(Nc1ccc2c(c1)CNC2)N1CC[C@H](CC(F)(F)F)C1 |
| > 25000 nM | CC(C)NC(=O)[C@H](Nc1ccc2c(c1)C(=O)OC2)c1cc(Cl)cc2[nH]ncc12 |
| > 25000 nM | O=C(Nc1ccc2c(c1)CNC2)N1CC(F)(F)CC2(CCC2)C1 |
| > 25000 nM | NCCCc1ccnc(NC(=O)c2nnc(C3CC3)s2)c1 |
| 21 nM and 20 nM | O=C1Cc2c(cc(Br)cc2C(=O)Nc2ccc3c(c2)CNC3)N1 |
| > 25000 nM | CC1([C@H]2CCCN(C(=O)Nc3ccc4c(c3)CNC4)C2)CC1 |
| > 25000 nM | CCCN1C(=O)[C@](Nc2ccc3c(c2)CNC3)(C(=O)NC)c2cc(Cl)ccc21 |
| > 25000 nM | Cc1c[nH]c2ncnc(C(=O)Nc3ccc4c(c3)CNC4)c12 |
| > 25000 nM | O=C(Nc1ccc2c(c1)CNC2)[C@H]1C[C@@H]1c1ccccc1 |
| 977 nM | Nc1noc2cccc(C(=O)Nc3ccc4c(c3)CNC4)c12 |
| 12800 nM | CS(=O)(=O)Nc1cccc(C(=O)Nc2ccc3c(c2)CNC3)c1 |
| 1030 nM | Clc1cc([C@H](C#Cc2ccccc2)Nc2ccc3c(c2)CNC3)c2cn[nH]c2c1 |
| 3630 nM | Cc1nc2c(C(=O)Nc3ccc4c(c3)CNC4)cccc2[nH]1 |
| 27 nM and 25 nM | O=C(Nc1ccc2c(c1)CNC2)c1cc(Br)cc2[nH]c(=O)[nH]c12 |
| 124 nM | O=C(NCCCn1ccnc1)[C@H](Nc1ccc2c(c1)CNC2)c1cc(Cl)cc(C2CC2)c1 |
| 1220 nM | O=C1COc2c(cccc2C(=O)Nc2ccc3c(c2)CNC3)N1 |
| 382 nM | O=C(Nc1ccc2c(c1)CNC2)c1cccc2ccncc12 |
| 2240 nM | O=C(Nc1ccc2c(c1)CNC2)c1cc(Cl)nc2[nH]ccc12 |
| 117 nM | Cc1nc2c(C(=O)Nc3ccc4c(c3)CNC4)cc(Cl)cc2[nH]1 |
| 3870 nM | N#C[C@H](Nc1ccc2c(c1)CNC2)c1cncc2ccccc12 |

| IC50 | Structure (SMILES) |
| --- | --- |
| > 25000 nM | O=C(Nc1ccc2c(c1)CNC2)c1ccc2nc(O)sc2c1 |
| 706 nM | CCSc1ccc(Cl)cc1C(=O)Nc1ccc2c(c1)CNC2 |
| > 25000 nM | O=C(Nc1ccc2c(c1)CNC2)c1cc2ncccc2s1 |
| 11400 nM | N#Cc1ccc(C(=O)Nc2ccc3c(c2)CNC3)cc1Cl |
| 8990 nM | COC(=O)C(C)(C)NC(=O)[C@H](Nc1ccc2c(c1)CNC2)c1cc(Cl)cc(C2CC2)c1 |
| > 25000 nM | Cc1[nH]c2ccccc2c1[C@H]1CCN(C(=O)Nc2ccc3c(c2)CNC3)C1 |
| 6140 nM | O=C1COc2cc(C(=O)Nc3ccc4c(c3)CNC4)ccc2N1 |
| 7320 nM | O=C(Nc1ccc2c(c1)CNC2)c1cc(C(F)(F)F)nc2[nH]ccc12 |
| > 25000 nM | O=C(Nc1ccc2c(c1)CNC2)c1ccc(-c2cncs2)cc1 |
| 297 nM | CCOC(=O)c1ncoc1CNC(=O)[C@H](Nc1ccc2c(c1)CNC2)c1cc(Cl)cc(C2CC2)c1 |
| 30 nM and 21 nM | O=C(NC1CCOCC1)[C@H](Nc1ccc2c(c1)CNC2)c1cc(Cl)cc2[nH]ncc12 |
| 456 nM | O=C(Nc1ccc2c(c1)CNC2)c1cccc2sccc12 |
| 443 nM | O=C(Nc1ccc2c(c1)CNC2)c1cncc2[nH]ncc12 |
| 2950 nM | O=C(Nc1ccc2c(c1)CNC2)c1ccc2[nH]cnc2c1 |
| 274 nM | O=C(Nc1ccc2c(c1)CNC2)c1cc(F)c2[nH]ccc2c1 |
| 21100 nM | O=C(Nc1ccc2c(c1)CNC2)c1ccnc2[nH]ccc12 |
| > 25000 nM | O=C(Nc1ccc2c(c1)CNC2)c1ccc2cc[nH]c2c1 |
| 2440 nM | N#C[C@H](Nc1ccc2c(c1)CNC2)c1cc(Cl)cc2c1OCC2 |
| 68 nM and 64 nM | O=C(Nc1ccc2c(c1)CNC2)c1cccc2[nH]c(=O)[nH]c12 |
| > 25000 nM | CC[C@H]1CN(C(=O)Nc2ccc3c(c2)CNC3)C[C@@H]1c1ccc(OC)cc1 |
| > 25000 nM | O=C(Nc1ccc2c(c1)CNC2)c1ncnc2[nH]ccc12 |
| > 25000 nM | NCc1cc(Cl)cc(C(=O)Nc2ccc3c(c2)C(=O)OC3)c1 |

| IC50 | Structure (SMILES) |
| --- | --- |
| 312 nM | O=C(Nc1ccc2c(c1)CNC2)c1cc(Cl)cc2[nH]c(-c3ncnn3C3CC3)nc12 |
| > 25000 nM | O=C(Nc1ccc2c(c1)CNC2)c1c(Cl)ccc2c1OCO2 |
| 4030 nM | O=C(Nc1ccc2c(c1)CNC2)c1cccc2nc(C(F)(F)F)[nH]c12 |
| 75 nM and 54 nM | CC(C)CNC(=O)[C@H](Nc1ccc2c(c1)CNC2)c1cc(Cl)cc2[nH]ncc12 |
| > 25000 nM | CC(=O)Nc1cccc(C(=O)Nc2ccc3c(c2)CNC3)n1 |
| 4690 nM | CC(C)(C)NC(=O)[C@H](Nc1ccc2c(c1)CNC2)c1cc(Cl)cc(C2CC2)c1 |
| 364 nM | CCc1cnccc1-c1nc2c(C(=O)Nc3ccc4c(c3)CNC4)cc(Cl)cc2[nH]1 |
| 60 nM and 42 nM | CCOCCNC(=O)[C@H](Nc1ccc2c(c1)CNC2)c1cc(Cl)cc2[nH]ncc12 |
| > 25000 nM | O=C(Nc1ccc2c(c1)CNC2)N1CCC[C@H](Cc2nccs2)C1 |
| > 25000 nM | O=C1CC[C@H]2[C@H](CCN2C(=O)c2ccc3c(c2)CNC3)N1 |
| 36 nM and 31 nM | CCCNC(=O)[C@H](Nc1ccc2c(c1)CNC2)c1cc(Cl)cc2[nH]ncc12 |
| 7490 nM | CC1(C)C(=O)Nc2ccc(C(=O)Nc3ccc4c(c3)CNC4)cc21 |
| 122 nM | O=C(NCc1cccnc1)[C@H](Nc1ccc2c(c1)CNC2)c1cc(Cl)cc2[nH]ncc12 |
| 997 nM | O=C(Nc1ccc2c(c1)CNC2)c1ccc2ncsc2c1 |
| 569 nM | O=C1Cc2c(cccc2C(=O)Nc2ccc3c(c2)CNCCC3)N1 |
| > 25000 nM | CNC(=O)[C@H](Nc1ccc2c(c1)C(=O)OC2)c1cc(Cl)cc2[nH]ncc12 |
| 765 nM | O=C(Nc1ccc2c(c1)CNC2)c1cc(Cl)cc2[nH]c(C3(n4ccnn4)CC3)nc12 |
| 2810 nM | O=C(Nc1ccc2c(c1)CNC2)c1cccc2[nH]cnc12 |
| 1670 nM and 2500 nM | O=C(Nc1ccc2c(c1)CNC2)c1ccc2[nH]ccc2c1 |
| 8050 nM | C[C@H](C1CC1)n1ncc2c(C(=O)Nc3ccc4c(c3)CNC4)cc(C3CC3)nc21 |
| 1130 nM | Cn1cc2c(C(=O)Nc3ccc4c(c3)CNC4)cccc2n1 |
| > 25000 nM | Cc1csc(CO[C@H]2CCN(C(=O)Nc3ccc4c(c3)CNC4)C2)n1 |
